# Reference: ChEMBL document CHEMBL5291721, “A preclinical secondary pharmacology resource illuminates target-adverse drug reaction associations of marketed drugs” (Nat Commun, 2023)
# What was measured:
# [1] = molecular target: Gamma-aminobutyric acid receptor subunit alpha-1/alpha-2/beta-2/gamma-2 (Homo sapiens, UniProt P14867+P18507+P47869+P47870); assay type: functional, cell-based
# Estrogen receptor = molecular target: T1, Estrogen receptor (Homo sapiens, UniProt P03372)
# T1 sequence (P03372 whole entry): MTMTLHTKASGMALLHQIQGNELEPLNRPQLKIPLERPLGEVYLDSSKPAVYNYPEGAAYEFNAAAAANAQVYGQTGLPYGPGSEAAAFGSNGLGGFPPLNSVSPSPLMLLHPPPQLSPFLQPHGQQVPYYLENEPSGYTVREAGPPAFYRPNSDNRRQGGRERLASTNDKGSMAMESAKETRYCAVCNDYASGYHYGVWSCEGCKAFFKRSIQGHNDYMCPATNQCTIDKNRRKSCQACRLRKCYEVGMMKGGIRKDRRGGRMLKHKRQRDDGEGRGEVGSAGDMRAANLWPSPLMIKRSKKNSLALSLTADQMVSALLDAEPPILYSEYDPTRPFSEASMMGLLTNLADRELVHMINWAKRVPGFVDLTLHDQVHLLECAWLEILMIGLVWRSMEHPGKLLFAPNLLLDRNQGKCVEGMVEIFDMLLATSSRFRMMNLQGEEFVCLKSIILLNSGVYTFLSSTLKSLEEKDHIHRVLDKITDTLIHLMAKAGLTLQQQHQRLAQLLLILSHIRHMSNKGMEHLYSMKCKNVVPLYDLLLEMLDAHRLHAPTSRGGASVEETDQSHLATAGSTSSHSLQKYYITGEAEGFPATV
# Progesterone receptor = molecular target: T2, Progesterone receptor (Homo sapiens, UniProt P06401); assay type: functional
# T2 sequence (P06401 whole entry): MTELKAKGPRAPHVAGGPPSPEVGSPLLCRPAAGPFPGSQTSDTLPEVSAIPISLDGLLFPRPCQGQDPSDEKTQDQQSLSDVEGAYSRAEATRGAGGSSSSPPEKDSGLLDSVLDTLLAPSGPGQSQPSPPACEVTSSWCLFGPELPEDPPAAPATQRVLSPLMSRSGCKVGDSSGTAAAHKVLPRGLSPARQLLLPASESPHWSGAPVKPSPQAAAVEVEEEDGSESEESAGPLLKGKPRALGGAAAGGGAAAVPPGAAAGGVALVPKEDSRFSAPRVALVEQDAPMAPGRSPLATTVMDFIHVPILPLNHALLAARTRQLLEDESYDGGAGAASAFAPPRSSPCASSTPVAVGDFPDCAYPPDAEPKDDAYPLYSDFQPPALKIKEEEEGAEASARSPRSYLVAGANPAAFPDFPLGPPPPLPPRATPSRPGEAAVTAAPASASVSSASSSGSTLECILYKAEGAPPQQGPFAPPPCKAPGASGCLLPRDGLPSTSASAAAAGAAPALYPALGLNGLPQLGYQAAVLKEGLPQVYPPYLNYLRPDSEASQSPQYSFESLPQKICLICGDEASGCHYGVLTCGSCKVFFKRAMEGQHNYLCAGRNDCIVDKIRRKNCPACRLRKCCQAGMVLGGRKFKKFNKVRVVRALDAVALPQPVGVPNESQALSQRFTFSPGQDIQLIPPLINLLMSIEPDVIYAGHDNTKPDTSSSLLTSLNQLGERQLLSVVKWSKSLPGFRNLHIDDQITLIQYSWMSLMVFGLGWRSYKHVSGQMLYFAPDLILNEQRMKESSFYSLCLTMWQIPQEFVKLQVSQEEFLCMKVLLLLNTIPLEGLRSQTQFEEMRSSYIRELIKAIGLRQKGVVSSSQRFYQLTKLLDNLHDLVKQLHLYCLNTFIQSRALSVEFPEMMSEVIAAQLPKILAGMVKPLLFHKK
# [2] = molecular target: T3, Alpha-1A adrenergic receptor (Homo sapiens, UniProt P35348)
# T3 sequence (P35348 whole entry): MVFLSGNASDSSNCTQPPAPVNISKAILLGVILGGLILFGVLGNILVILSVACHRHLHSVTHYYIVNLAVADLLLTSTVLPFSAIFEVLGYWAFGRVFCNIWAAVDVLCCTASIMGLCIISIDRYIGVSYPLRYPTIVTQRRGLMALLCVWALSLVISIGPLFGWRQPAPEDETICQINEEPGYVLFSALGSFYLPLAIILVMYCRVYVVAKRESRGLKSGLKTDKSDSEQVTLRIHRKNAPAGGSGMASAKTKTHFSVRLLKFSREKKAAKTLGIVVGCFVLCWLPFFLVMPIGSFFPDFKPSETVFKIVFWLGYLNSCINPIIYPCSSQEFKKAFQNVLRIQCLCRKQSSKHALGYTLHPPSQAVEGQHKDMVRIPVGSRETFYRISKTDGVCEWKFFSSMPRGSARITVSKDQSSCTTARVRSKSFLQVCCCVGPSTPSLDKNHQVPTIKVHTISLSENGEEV
# Mu-type opioid receptor = Mu-type opioid receptor (Homo sapiens, UniProt P35372)
# [3] = molecular target: T4, Gastric inhibitory polypeptide receptor (Homo sapiens, UniProt P48546)
# T4 sequence (P48546 whole entry): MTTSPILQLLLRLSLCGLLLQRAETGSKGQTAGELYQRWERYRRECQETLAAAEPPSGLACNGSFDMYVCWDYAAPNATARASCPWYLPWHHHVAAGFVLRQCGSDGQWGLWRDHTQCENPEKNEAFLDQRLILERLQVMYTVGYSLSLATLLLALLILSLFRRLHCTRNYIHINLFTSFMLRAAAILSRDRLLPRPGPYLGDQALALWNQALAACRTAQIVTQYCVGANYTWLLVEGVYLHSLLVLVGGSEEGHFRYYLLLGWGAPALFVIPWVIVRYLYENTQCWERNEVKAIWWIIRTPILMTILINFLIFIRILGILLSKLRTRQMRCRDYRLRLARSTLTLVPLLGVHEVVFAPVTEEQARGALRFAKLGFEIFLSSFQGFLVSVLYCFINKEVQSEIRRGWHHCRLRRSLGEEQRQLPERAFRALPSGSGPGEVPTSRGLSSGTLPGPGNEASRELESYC
# Estrogen receptor beta = Estrogen receptor beta (Homo sapiens, UniProt Q92731)
# Also: assay procedure not described here.
# Sequence of Gamma-aminobutyric acid receptor subunit alpha-1/alpha-2/beta-2/gamma-2 (P14867 whole entry): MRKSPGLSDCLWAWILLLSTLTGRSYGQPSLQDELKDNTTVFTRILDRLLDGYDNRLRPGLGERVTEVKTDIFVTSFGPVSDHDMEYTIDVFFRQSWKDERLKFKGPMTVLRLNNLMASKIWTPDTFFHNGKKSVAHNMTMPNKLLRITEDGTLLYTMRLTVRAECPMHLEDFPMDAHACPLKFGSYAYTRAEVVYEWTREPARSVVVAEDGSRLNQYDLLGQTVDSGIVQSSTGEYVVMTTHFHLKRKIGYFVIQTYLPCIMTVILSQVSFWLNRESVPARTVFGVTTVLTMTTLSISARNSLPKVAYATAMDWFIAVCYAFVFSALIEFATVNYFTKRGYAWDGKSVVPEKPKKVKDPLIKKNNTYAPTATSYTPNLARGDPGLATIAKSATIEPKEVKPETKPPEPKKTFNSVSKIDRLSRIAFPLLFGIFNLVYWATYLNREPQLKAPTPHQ
# Sequence of Gamma-aminobutyric acid receptor subunit alpha-1/alpha-2/beta-2/gamma-2 (P47870 whole entry): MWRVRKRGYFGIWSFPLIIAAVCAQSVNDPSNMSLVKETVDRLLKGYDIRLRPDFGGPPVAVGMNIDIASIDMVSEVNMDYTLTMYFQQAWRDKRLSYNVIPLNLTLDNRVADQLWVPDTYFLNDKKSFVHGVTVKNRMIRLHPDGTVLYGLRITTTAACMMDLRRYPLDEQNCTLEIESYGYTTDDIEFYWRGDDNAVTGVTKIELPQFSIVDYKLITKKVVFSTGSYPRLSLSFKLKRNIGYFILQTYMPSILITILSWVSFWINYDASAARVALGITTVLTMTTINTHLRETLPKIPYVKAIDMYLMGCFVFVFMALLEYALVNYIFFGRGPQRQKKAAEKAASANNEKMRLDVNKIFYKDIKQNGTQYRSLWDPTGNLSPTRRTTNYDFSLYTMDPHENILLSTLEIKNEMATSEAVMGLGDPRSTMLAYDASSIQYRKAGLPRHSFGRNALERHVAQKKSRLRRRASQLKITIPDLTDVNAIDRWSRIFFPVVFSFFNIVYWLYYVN
# Sequence of Gamma-aminobutyric acid receptor subunit alpha-1/alpha-2/beta-2/gamma-2 (P18507 whole entry): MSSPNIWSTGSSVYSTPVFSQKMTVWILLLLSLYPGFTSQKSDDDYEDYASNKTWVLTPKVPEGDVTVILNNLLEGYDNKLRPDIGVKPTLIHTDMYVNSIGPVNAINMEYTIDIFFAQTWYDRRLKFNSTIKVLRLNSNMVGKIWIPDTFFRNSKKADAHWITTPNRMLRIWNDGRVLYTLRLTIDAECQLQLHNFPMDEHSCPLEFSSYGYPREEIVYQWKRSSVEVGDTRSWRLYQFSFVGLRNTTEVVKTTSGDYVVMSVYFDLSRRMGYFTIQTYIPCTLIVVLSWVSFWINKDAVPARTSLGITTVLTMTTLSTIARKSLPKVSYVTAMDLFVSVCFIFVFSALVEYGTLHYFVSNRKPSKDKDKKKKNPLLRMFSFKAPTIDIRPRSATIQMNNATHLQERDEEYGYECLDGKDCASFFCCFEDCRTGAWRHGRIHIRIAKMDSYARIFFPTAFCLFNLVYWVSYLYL
# Sequence of Gamma-aminobutyric acid receptor subunit alpha-1/alpha-2/beta-2/gamma-2 (P47869 whole entry): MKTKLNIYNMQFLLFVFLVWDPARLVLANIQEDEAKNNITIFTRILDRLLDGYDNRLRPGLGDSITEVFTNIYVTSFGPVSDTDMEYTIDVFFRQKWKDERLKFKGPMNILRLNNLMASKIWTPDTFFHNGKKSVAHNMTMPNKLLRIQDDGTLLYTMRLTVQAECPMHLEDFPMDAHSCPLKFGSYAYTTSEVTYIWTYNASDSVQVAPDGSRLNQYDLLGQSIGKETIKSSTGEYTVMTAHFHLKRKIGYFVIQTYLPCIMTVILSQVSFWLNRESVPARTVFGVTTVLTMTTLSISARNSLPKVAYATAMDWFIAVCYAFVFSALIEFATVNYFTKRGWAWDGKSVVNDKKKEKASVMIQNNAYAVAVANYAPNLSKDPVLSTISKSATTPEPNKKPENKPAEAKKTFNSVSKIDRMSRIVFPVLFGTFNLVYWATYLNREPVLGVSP
# Sequence of Estrogen receptor beta (Q92731 whole entry): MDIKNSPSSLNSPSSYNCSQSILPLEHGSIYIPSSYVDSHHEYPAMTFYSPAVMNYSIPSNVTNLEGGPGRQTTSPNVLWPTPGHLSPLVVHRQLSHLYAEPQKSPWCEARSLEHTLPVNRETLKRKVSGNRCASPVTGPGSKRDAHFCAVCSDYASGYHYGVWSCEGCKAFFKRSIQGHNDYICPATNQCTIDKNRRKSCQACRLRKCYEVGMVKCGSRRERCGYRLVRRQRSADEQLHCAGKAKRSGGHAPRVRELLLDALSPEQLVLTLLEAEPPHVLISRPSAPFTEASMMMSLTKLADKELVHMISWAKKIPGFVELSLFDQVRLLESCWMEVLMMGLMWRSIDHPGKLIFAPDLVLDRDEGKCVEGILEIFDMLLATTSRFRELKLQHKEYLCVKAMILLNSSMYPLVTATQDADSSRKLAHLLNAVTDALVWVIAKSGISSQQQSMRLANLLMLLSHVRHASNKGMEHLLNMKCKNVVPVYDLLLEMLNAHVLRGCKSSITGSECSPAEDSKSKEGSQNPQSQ
# Sequence of Mu-type opioid receptor (P35372 whole entry): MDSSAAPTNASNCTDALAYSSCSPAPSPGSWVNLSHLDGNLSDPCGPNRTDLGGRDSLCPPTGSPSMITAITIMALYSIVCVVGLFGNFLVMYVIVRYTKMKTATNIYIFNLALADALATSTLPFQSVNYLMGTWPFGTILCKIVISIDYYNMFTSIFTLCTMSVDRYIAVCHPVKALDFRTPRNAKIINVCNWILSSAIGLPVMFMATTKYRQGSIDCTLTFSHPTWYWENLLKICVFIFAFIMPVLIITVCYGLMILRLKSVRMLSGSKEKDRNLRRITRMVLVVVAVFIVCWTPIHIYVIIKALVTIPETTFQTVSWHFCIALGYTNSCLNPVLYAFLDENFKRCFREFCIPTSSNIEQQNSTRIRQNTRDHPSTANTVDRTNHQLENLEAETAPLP
Compound,AC50 [1] [µM],AC50 (Estrogen receptor) [µM],AC50 (Progesterone receptor) [µM],AC50 [2] [µM],AC50 (Mu-type opioid receptor) [µM],AC50 [3] [µM],AC50 (Estrogen receptor beta) [µM]
CC[C@@H](C(N)=O)N1CCCC1=O,> 30,> 30,> 30,–,–,–,–
CCC(CC)(CC(=O)Nc1cccc(/C=C/c2nc(C3CCC3)cs2)c1)C(=O)O,–,> 30,> 30,–,–,–,–
CCCC1O[C@@H]2C[C@H]3[C@@H]4CCC5=CC(=O)C=C[C@]5(C)[C@H]4[C@@H](O)C[C@]3(C)[C@]2(C(=O)CO)O1 (stereo partly specified) [BUDESONIDE],–,–,–,> 10,> 30,–,–
C=CCN1C[C@H](C(=O)N(CCCN(C)C)C(=O)NCC)C[C@@H]2c3cccc4[nH]cc(c34)C[C@H]21 [CABERGOLINE],> 30,> 10,> 10,3.62,> 30,–,–
NC1CCN(c2c(F)cc3c(=O)c(C(=O)O)cn(C4CC4)c3c2Cl)C1 (stereo unspecified) [CLINAFLOXACIN],> 300,–,–,–,–,–,–
CN1CCN(C2=Nc3ccccc3Sc3ccc(Cl)cc32)CC1 [CLOTHIAPINE],> 10,–,–,–,–,–,–
CN(C)CCC=C1c2ccccc2C=Cc2ccccc21 [CYCLOBENZAPRINE],–,> 30,–,0.261,> 10,> 30,> 30
CCOc1ccc(Cc2cc([C@@H]3O[C@H](CO)[C@@H](O)[C@H](O)[C@H]3O)ccc2Cl)cc1 [DAPAGLIFLOZIN],–,> 30,–,> 10,> 30,–,–
CN(C)CC/C=C1\c2ccccc2CSc2ccccc21 [DOTHIEPIN],–,> 30,–,3.2,–,–,–
CC[C@H]1CN2CCc3cc(OC)c(OC)cc3[C@@H]2C[C@@H]1C[C@H]1NCCc2cc(OC)c(OC)cc21 [EMETINE],> 30,–,> 30,6,18,–,–
COc1ccc(C(=O)Nc2ccccc2CCC2CCCCN2C)cc1 (stereo unspecified) [ENCAINIDE],–,> 30,–,> 10,> 30,> 30,> 30
O=[N+]([O-])O[C@@H]1CO[C@H]2[C@@H]1OC[C@@H]2O [ISOSORBIDE MONONITRATE],–,> 30,–,> 10,> 30,> 30,> 30
Cc1cc(C)c(NC(=O)CN(CC(=O)O)CC(=O)O)c(C)c1Br [MEBROFENIN],> 30,–,–,–,–,–,–
COc1ccccc1N1CCN(CC(O)COc2cccc3ccccc23)CC1 (stereo unspecified) [NAFTOPIDIL],–,–,> 30,0.543,–,–,–
COc1cc2nc(N3CCN(C(=O)c4ccco4)CC3)nc(N)c2cc1OC [PRAZOSIN],–,> 30,–,–,4.1,> 30,> 30
O=[N+]([O-])c1cn2c(n1)OC[C@@H](OCc1ccc(OC(F)(F)F)cc1)C2 [PRETOMANID],–,–,–,–,> 10,–,–
Cc1oc(=O)oc1CN1CCN(c2cc3c(cc2F)c(=O)c(C(=O)O)c2n3C(C)S2)CC1 (stereo unspecified) [PRULIFLOXACIN],> 30,–,–,–,–,–,–
CCCCCNC(=N)N/N=C/c1c[nH]c2ccc(OC)cc12 [TEGASEROD],–,–,> 30,2.05,2.8,> 30,> 30
COC1=C(OC)C(=O)C(C/C=C(\C)CC/C=C(\C)CC/C=C(\C)CC/C=C(\C)CC/C=C(\C)CC/C=C(\C)CC/C=C(\C)CC/C=C(\C)CC/C=C(\C)CCC=C(C)C)=C(C)C1=O [UBIDECARENONE],> 30,–,–,–,–,–,–
CCOc1ccccc1OCC1CNCCO1 (stereo unspecified) [VILOXAZINE],–,> 30,–,11.2,> 10,> 30,> 30
CN(C)CCc1c[nH]c2ccc(C[C@H]3COC(=O)N3)cc12 [ZOLMITRIPTAN],> 30,> 30,> 30,–,–,–,–
